Measured values reported in patent US10670605B2, “Cysteine reactive probes and uses thereof” (The Scripps Research Institute, priority 2015, dated 2020).
Values belong to the compound of their own block, whether it stands above or below them.

How the values were obtained:
Assay in all cases: Competitive isoTOP-ABPP in situ (fragment-treated cells)
Assay type in all cases: cell-based
[1] = biological target: T1, cysteines in MDA-MB-231 and Ramos cells (Homo sapiens, UniProt P57764); conditions: 200 μM, insitu
T1 sequence (P57764 1-484): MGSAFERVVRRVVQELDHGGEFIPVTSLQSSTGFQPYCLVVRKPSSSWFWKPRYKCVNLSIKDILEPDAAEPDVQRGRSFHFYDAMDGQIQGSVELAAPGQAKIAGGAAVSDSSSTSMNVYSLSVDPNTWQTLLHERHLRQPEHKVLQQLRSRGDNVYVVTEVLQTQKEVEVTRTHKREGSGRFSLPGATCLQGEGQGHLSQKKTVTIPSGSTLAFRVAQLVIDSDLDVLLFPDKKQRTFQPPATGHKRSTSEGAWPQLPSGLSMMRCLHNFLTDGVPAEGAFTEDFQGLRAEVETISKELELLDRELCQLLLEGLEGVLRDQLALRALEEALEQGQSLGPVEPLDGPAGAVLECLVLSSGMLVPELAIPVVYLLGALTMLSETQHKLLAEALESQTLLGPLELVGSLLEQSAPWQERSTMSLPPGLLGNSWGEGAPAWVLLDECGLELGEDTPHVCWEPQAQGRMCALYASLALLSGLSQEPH

[2] = biological target: T2, cysteines in MDA-MB-231 and Ramos cells (Homo sapiens, UniProt Q9UMS0); conditions: 200 μM, insitu
T2 sequence (Q9UMS0 10-254): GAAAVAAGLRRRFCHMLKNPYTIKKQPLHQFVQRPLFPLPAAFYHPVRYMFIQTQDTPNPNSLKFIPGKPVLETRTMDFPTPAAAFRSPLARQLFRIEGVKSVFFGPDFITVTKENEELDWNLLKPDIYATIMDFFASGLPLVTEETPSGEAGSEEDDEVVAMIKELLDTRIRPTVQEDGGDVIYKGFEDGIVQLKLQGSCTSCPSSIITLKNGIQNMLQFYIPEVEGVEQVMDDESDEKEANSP

[3] = biological target: T3, cysteines in MDA-MB-231 and Ramos cells (Homo sapiens, UniProt P24752); conditions: 200 μM, insitu
T3 sequence (P24752 34-427): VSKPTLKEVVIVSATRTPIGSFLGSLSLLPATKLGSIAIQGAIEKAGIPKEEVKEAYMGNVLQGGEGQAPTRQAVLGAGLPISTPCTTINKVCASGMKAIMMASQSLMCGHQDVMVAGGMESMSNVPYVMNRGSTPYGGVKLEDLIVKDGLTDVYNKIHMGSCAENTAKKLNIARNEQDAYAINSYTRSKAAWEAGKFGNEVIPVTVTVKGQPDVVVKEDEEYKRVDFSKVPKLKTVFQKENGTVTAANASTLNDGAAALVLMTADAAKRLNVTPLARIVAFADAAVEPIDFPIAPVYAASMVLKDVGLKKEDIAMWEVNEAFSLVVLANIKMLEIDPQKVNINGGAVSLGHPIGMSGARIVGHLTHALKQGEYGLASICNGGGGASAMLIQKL

[4] = biological target: T4, cysteines in MDA-MB-231 and Ramos cells (Homo sapiens, UniProt Q15084); conditions: 200 μM, insitu
T4 sequence (Q15084 20-440): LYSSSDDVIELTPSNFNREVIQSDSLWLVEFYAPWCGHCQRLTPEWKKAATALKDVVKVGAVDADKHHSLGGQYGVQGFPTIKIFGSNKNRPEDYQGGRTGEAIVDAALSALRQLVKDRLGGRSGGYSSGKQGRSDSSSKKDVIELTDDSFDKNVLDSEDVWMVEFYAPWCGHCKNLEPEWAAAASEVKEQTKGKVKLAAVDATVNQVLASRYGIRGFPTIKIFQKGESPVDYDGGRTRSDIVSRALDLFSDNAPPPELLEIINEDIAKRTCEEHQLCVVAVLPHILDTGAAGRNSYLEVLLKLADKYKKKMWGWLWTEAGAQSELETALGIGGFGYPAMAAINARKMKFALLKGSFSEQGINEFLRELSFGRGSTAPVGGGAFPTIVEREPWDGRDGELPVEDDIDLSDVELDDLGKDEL

[5] = biological target: T5, cysteines in MDA-MB-231 and Ramos cells (Homo sapiens, UniProt P22307); conditions: 200 μM, insitu, 231
T5 sequence (P22307 1-547): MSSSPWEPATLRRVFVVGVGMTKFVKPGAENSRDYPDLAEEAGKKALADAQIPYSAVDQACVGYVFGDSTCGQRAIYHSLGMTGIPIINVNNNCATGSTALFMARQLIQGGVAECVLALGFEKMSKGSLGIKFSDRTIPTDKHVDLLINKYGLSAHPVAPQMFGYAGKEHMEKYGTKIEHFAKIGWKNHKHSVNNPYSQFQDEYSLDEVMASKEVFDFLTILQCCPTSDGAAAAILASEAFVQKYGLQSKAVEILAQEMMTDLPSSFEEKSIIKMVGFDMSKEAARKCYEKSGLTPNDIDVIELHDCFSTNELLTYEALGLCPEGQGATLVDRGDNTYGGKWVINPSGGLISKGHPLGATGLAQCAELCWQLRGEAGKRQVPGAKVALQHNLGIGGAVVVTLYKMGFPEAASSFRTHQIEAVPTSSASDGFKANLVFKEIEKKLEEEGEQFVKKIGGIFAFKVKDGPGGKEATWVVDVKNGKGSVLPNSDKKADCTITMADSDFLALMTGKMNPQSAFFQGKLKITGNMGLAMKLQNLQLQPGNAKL

[6] = biological target: T6, cysteines in MDA-MB-231 and Ramos cells (Homo sapiens, UniProt Q9BRA2); conditions: 200 μM, insitu
T6 sequence (Q9BRA2 1-123): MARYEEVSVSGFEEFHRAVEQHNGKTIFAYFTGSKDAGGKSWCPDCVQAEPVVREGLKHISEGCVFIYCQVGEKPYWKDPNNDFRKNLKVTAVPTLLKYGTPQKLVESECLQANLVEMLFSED

[7] = biological target: T7, cysteines in MDA-MB-231 and Ramos cells (Homo sapiens, UniProt Q13162); conditions: 200 μM, insitu
T7 sequence (Q13162 38-271): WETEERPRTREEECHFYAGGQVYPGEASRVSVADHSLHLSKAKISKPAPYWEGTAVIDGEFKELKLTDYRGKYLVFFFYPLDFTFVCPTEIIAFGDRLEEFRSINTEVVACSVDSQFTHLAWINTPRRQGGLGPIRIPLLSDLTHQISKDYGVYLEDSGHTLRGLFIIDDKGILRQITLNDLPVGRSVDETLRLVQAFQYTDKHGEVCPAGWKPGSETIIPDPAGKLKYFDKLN

isoTOP-ABPP ratio P57764_C268 [1]; 231: 1.8 | isoTOP-ABPP ratio Q9UMS0_C213 [2]; 231: 1.8 | isoTOP-ABPP ratio P24752_C119 [3]; 231: 0.7 | isoTOP-ABPP ratio P24752_C413 [3]; 231: 1.1 | isoTOP-ABPP ratio Q15084_C55 [4]; 231: 5.0 | isoTOP-ABPP ratio P22307_C71 [5]: 5.6
Structure (SMILES): O=C(CCl)Nc1cccc2ncccc12 [compound 51]

isoTOP-ABPP ratio P57764_C268 [1]; 231: 1.8 | isoTOP-ABPP ratio Q9UMS0_C213 [2]; 231: 3.5 | isoTOP-ABPP ratio P24752_C119 [3]; 231: 1.2 | isoTOP-ABPP ratio P24752_C413 [3]; 231: 1.1 | isoTOP-ABPP ratio, P24752_C196 [3]; 231: 1.0 | isoTOP-ABPP ratio Q9BRA2_C43 [6]; 231: 1.1 | isoTOP-ABPP ratio Q13162_C51 [7]; 231: 2.4 | isoTOP-ABPP ratio Q15084_C55 [4]; 231: 0.8 | isoTOP-ABPP ratio, Q15084_C190 [4]; 231: 1.0
Structure (SMILES): C=CC(=O)Nc1cc(F)c(N2CCN(C(=O)OC(C)(C)C)CC2)c(F)c1 [compound 38]

isoTOP-ABPP reactivity P57764_C268 GSDMD [1]; 231: 8.4 | isoTOP-ABPP reactivity P24752_C119 ACAT1 [3]; 231: 5.5 | isoTOP-ABPP reactivity P24752_C126 ACAT1 [3]; 231: 4.5 | isoTOP-ABPP reactivity P24752_C413 ACAT1 [3]; 231: 20.0 | isoTOP-ABPP reactivity Q9BRA2_C43 TXNDC17 [6]; 231: 20.0 | isoTOP-ABPP reactivity Q13162_C51 PRDX4 [7]; 231: 1.4 | isoTOP-ABPP reactivity Q15084_C55 PDIA6 [4]; 231: 4.4 | isoTOP-ABPP reactivity Q15084_C190 PDIA6 [4]; 231: 5.2 | isoTOP-ABPP reactivity P22307_C71 SCP2 [5]: 20.0 | isoTOP-ABPP reactivity P22307_C307 SCP2 [5]: 20.0
Structure (SMILES): COc1cc2c(cc1OC)CN(C(=O)CCl)CC2 [compound 8]

isoTOP-ABPP ratio P57764_C268 ([1]; ramos): 3.1 | isoTOP-ABPP ratio Q9UMS0_C213 [2]; 231: 1.5 | isoTOP-ABPP ratio P24752_C119 [3]; 231: 0.6 | isoTOP-ABPP ratio P24752_C413 [3]; 231: 1.0 | isoTOP-ABPP ratio, P24752_C126 [3]; 231: 0.7 | isoTOP-ABPP ratio P24752_C119 ([3]; ramos): 0.7 | isoTOP-ABPP ratio Q9BRA2_C43 [6]; 231: 0.6 | isoTOP-ABPP ratio Q13162_C51 ([7]; ramos): 1.3 | isoTOP-ABPP ratio Q15084_C55 [4]; 231: 0.7 | isoTOP-ABPP ratio, Q15084_C190 [4]; 231: 1.0
Structure (SMILES): C=CC(=O)N(Cc1cccnc1)c1cc(C(F)(F)F)cc(C(F)(F)F)c1 [compound 31]

isoTOP-ABPP ratio P57764_C268 ([1]; ramos): 1.5 | isoTOP-ABPP ratio Q9UMS0_C213 [2]; 231: 1.6 | isoTOP-ABPP ratio P24752_C119 [3]; 231: 2.1 | isoTOP-ABPP ratio P24752_C413 [3]; 231: 3.5 | isoTOP-ABPP ratio P24752_C119 ([3]; ramos): 2.8 | isoTOP-ABPP ratio P24752_C413 ([3]; ramos): 20.0 | isoTOP-ABPP ratio Q9BRA2_C43 [6]; 231: 20.0 | isoTOP-ABPP ratio Q9BRA2_C43 ([6]; ramos): 5.2 | isoTOP-ABPP ratio Q15084_C55 ([4]; ramos): 1.5 | isoTOP-ABPP ratio P22307_C71 [5]: 4.9
Structure (SMILES): O=C(CCl)NCCc1c[nH]c2ccccc12 [compound 13]

isoTOP-ABPP reactivity P24752_C119 ACAT1 [3]; 231: 3.8 | isoTOP-ABPP reactivity P24752_C126 ACAT1 [3]; 231: 14.1 | isoTOP-ABPP reactivity P24752_C196 ACAT1 [3]; 231: 5.8 | isoTOP-ABPP reactivity P24752_C413 ACAT1 [3]; 231: 19.5 | isoTOP-ABPP reactivity Q9BRA2_C43 TXNDC17 [6]; 231: 20.0 | isoTOP-ABPP reactivity Q13162_C51 PRDX4 [7]; 231: 3.3 | isoTOP-ABPP reactivity Q15084_C55 PDIA6 [4]; 231: 2.1
Structure (SMILES): O=C(CCl)N1CCC(Cc2ccccc2)CC1 [compound 9]

isoTOP-ABPP ratio P57764_C268 ([1]; ramos): 1.1 | isoTOP-ABPP ratio Q9UMS0_C213 ([2]; ramos): 2.0 | isoTOP-ABPP ratio P24752_C119 ([3]; ramos): 1.2 | isoTOP-ABPP ratio P24752_C413 ([3]; ramos): 1.2 | isoTOP-ABPP ratio, P24752_C126 ([3]; ramos): 1.2 | isoTOP-ABPP ratio, P24752_C196 ([3]; ramos): 1.1 | isoTOP-ABPP ratio Q9BRA2_C43 ([6]; ramos): 2.3 | isoTOP-ABPP ratio Q15084_C55 ([4]; ramos): 1.0 | isoTOP-ABPP ratio, Q15084_C190 ([4]; ramos): 1.0
Structure (SMILES): O=C(CCl)N1CCN(CC(=O)N2CCOCC2)CC1 [compound 29]
